The subject of the test is paternal Ube3a-YFP allele. As to the kind of experiment: High-content imaging of paternal Ube3a-YFP unsilencing in primary cortical neurons. The following applies: for EC50 / EC20 / maximal fold induction: Mus musculus; for EC20: Table 3, unsilencing the paternal allele of Ube3a-YFP in cultured neurons, 1 nM to 30 μM, read-out: Potency EC20; for unsilencing of paternal Ube3a-YFP in dose-response experiments: cultured Ube3a m+/pYFP neurons. It counts as cell-based, mouse. As to the method: In all screening assays, primary cortical neurons from Ube3a-YFP mice are isolated from embryonic day 15.5 animals, and the genotype of animals is determined to identify mice that encode the Ube3a-YFP transgene on the paternal allele. Freshly isolated cortical neurons are seeded into 384 well plates and cultured for 7 days. At day in vitro seven, screening is performed using multiple chemical libraries and compound concentration of 10 μM in 0.2% DMSO vehicle. After 72 h of drug exposure (run in quadruplicate wells), neurons are fixed with 4% para formaldehyde and processed for immunofluorescence using an anti-GFP-Alexa 488 conjugated antibody to enhance the signal of Ube3a-YFP in neurons. For image analyses, individual wells of immunofluorescence-processed plates are imaged fro DAPI and GFP fluorescence using the BD-Pathway 855 high-content imaging microscope. Ube3a-YFP fluorescence intensities in individual neurons are determined in drug-treated wells and normalized to 0.2% DMSO-treated (i.e., vehicle control) wells using custom written macros and algorithms using NIH Image J and Arrayscan Cell Profiler software programs. These image analyses enable masking of nuclei in individual neurons and determination of Ube3a-YFP fluorescence intensity in the nuclei of individual neurons.
For these studies, DIV 7 primary neurons encoding paternal Ube3a-YFP are dose treated with hit compounds across seven orders of magnitude in full and half log molar concentrations (3 pM to 30 μM). Ube3a-YFP fluorescence intensities in living neurons are determined again by high-content imaging microscopy after 72 h treatments. The dose response results are analyzed by least squares sigmoidal dose-response curve fitting models using Graphpad Prism 5.0 (Graphpad Software, Inc.). The calculated EC50 values (potencies) and Y value top plateau (estimated efficacies or Emax) enable comparative analyses of the relative potency and efficacy of the identified compounds.
Primary cortical neurons were isolated from E13.5-16.5 Ube3a-YFP mice. Screening was performed in quadruplicate at DIV7 using multiple chemical libraries and a compound concentration of 10 μM in 0.2% DMSO vehicle. After 72 h of drug exposure, neurons were fixed with 4% paraformaldehyde in PBS for 35 min, permeabilized with 0.3% Triton X-100 in PBS on ice for 30 min, and blocked by 5% goat serum with 0.1% Triton X-100 in PBS at room temperature for 1 hr. Cells were incubated with a rabbit polyclonal antibody to GFP (1:1000, Novus Biologicals, NB600-308) at room temperature for 1 hr and then incubated with Alexa Fluor 488 goat antibody to rabbit IgG (1:200, Invitrogen, A11008) and DAPI (1:10,000, Invitrogen, D-1306) at room temperature for 30 min. Individual wells of immunofluorescence-processed plates were imaged for DAPI or Alexa 488 fluorescence using the BD Pathway 855 high-content imaging microscope with a 488 excitation/515 long pass filter. Antibody-enhanced UBE3A-YFP fluorescence intensities were determined from individual neurons in drug-treated wells and normalized to neurons in wells treated with 0.2% DMSO (vehicle control). Analyses were performed with custom macros and algorithms using NIH Image J and Arrayscan Cell Profiler software programs (Thermo Scientific/Cellomics). These image analyses enabled masking of nuclei in individual neurons and determination of UBE3A-YFP fluorescence intensities in the nuclei of individual neurons (FIG. 16).
DIV7 primary neurons from Ube3a^m+/pYFP mice were dose-treated for 72 h with topoisomerase I and II inhibitors in ten point dose-responses in full and half log molar concentrations (1 nM to 30 μM). Neurons were fixed, processed for immunofluorescence, and UBE3A-YFP fluorescence intensities were again determined by high-content imaging microscopy.

Setting [1] is: Cortical neurone, Table 1, unsilencing paternal Ube3a-YFP, cortical neurons, 72 h, read-out: EC50.
The mark [2] stands for this setting: Primary cortical neuron, concentration-response curves, 72 hr, n=4, mean±SEM, read-out: EC50 for unsilencing paternal Ube3a-YFP (FIG. 7).

Where two headings read alike, the source gives them in different places.

One may read the EC50 as the concentration needed to bring the measured effect to its halfway point. A word on the EC20: it is the concentration needed for an effect of 20%.

As to `CCc1c2c(nc3ccc(OC(=O)N4CCC(N5CCCCC5)CC4)cc13)-c1cc3c(c(=O)n1C2)COC(=O)[C@]3(O)CC` [Irinotecan], where the note is “10 μM for 72 hours, Ube3a m+/pYFP neurons”, the “unsilencing of paternal Ube3a-YFP in the primary screen” value is on record as “upregulated UBE3A-YFP fluorescence”. The 50% effective concentration (EC50) is 994 ± 10 nM under setting [1] and 996 ± 10 nM under setting [2]. Further, for the setting “Neuron, 72 h”, the concentration for an effect of 20% (EC20) came to 994 ± 13 nM. In addition, the “unsilencing of paternal Ube3a-YFP in dose-response experiments” value (72 h) is “upregulate paternal UBE3A-YFP in a dose- and time-dependent manner”.

Take `CC[C@@]1(O)C(=O)OCc2c1cc1n(c2=O)Cc2cc3c(CN(C)C)c(O)ccc3nc2-1` [Topotecan]: the maximal fold induction reads like this: (Cortical neurone, 72 h, read-out: Efficacy Emax (fold over control)) 2.25 ± 0.07; (Neuron, 72 h, read-out: Efficacy Emax (fold over vehicle)) 2.25 ± 0.05. In addition, the EC50 under setting [1] was 54 ± 1.2 nM and the EC50 under setting [2] was found to be 55 ± 1.2 nM. Further, the EC20 (Neuron, 72 h) worked out at 54 ± 3.4 nM. Further, the “unsilencing of paternal Ube3a-YFP in dose-response experiments” value (72 h) was “upregulate paternal UBE3A-YFP in a dose- and time-dependent manner”. The “relative potency versus irinotecan (FIG. 7)” value (unsilencing paternal Ube3a-YFP) is recorded as ~20 times. For the setting “upregulation of paternal UBE3A-YFP in cultured neurons”, the “relative potency versus irinotecan (Example 16)” value amounted to 20 ×.
